Source: publication PMC8998611, “Identification of Novel GSK-3β Hits Using Competitive Biophysical Assays” (International Journal of Molecular Sciences, 2022)

Legend:
GSK-3β [1] = molecular target: T1, GSK-3β (Homo sapiens, UniProt P49841); experiment: Thermal shift assay with SYPRO Orange; type: binding; parameters: made in house; host or cells: Sf9 cells; settings: GSK-3β 5 μM; normalized to DMSO effect
Procedure: Given the poor inhibitory activity of compounds B3 and E2, only G5 and G12 were selected for further biophysical and structural investigations. […] A Tm increase of 3.2 °C and 2.5 °C was observed upon binding of G5 and G12, respectively. Reported effects were compared and normalized to the effect induced by DMSO alone on GSK-3β denaturation. The same experiments were also performed in the presence of AMP-PNP to unravel a possible effect of this molecule on protein denaturation.
Thermal shift experiments were conducted in technical triplicates and recorded with a ViiA7^TM real-time PCR instrument. The analysis protocol of Partch and colleagues developed for fast stability screening of buffers and interactors for recombinant proteins was followed, [42]. Briefly, the recombinant protein GSK-3β at a final concentration of 5 μM was mixed with the dye SYPRO Orange (2× final concentrated) in the selected assay buffer (NaCl 300 mM, Hepes pH 7.5 20 mM, MgCl2 5 mM, DTT 1 mM) and incubated with hit compounds at two different concentrations, 200 and 500 μM. Experiments were also performed on GSK-3β also in the presence of AMP-PNP at a final concentration of 200 μM. […]
Output data were collected and analyzed with Excel software and Graphpad Prism 7.

p70S6K = molecular target: T2, p70S6K (Homo sapiens, UniProt P23443); experiment: Eurofins Kinase Diversity Panel, p70S6K; type: biochemical; settings: 20 µM compound; ATP at Km ± 15 µM; read-out: inhibitory effect on p70S6K
T2 construct: purchased Eurofins (Kinase Diversity Panel service)
T2 sequence (P23443 whole entry): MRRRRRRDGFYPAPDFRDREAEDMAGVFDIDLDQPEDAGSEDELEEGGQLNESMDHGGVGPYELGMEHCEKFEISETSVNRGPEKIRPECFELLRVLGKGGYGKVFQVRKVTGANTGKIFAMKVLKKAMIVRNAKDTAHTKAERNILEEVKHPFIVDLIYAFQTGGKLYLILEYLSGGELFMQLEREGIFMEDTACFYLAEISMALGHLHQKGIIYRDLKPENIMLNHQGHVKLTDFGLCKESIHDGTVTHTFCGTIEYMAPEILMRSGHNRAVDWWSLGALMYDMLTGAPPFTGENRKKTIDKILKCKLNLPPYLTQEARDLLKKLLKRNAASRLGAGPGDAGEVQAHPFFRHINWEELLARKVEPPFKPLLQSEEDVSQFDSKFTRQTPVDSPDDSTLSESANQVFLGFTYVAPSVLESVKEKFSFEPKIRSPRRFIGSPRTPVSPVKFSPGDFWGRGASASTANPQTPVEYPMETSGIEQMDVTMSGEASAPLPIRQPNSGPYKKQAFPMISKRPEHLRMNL
Procedure: To further characterize the inhibitory activity of the two selected fragments, the selectivity of G5 and G12 towards a panel of 58 kinases of the humane proteome was evaluated using the “Kinase screening and profiling” service of Eurofins, Luxembourg (Kinase Diversity Panel). […] Results are reported in Supplementary Figures S2 and S3.

GSK-3β [2] = molecular target: T1, GSK-3β; experiment: GSK-3β kinetics, Lineweaver-Burk analysis of competition with ATP or substrate ULight-GS; type: biochemical; parameters: made in house; host or cells: Sf9 cells; settings: compound 20 and 50 μM; for mechanism of inhibition with respect to substrate ULight-GS: ATP 1 μM, ULight-GS 12.5-200 nM; for mechanism of inhibition with respect to ATP: ATP 0.25-4 μM, ULight-GS 50 nM
Procedure: First, under a constant concentration of the substrate ULight-GS (50 nM), ATP concentrations were varied from 0.25 to 4 μM, and G5 and G12 were tested at 20 and 50 μM. […] Additionally, G5 and G12 (at 20 and 50 μM) were tested by keeping the ATP concentration constant (1 μM) and varying the substrate ULight-GS concentration from 12.5 to 200 nM.
To study the GSK-3β kinetics, the reaction mixture, varying concentrations of ATP (0.25–0.5–1–2–4 μM) or substrate (12.5–25–50–100–200 nM) versus test samples (20 and 50 μM), were incubated for 5, 15, 30, and 60 min at 23 °C, followed by the addition of the 6 mM EDTA and the anti-phospho-GS antibody according to the manufacturer’s protocol.
For GSK-3β kinetic experiments, initial velocities (V0) were determined and fitted to the Michaelis–Menten equation. To directly visualize G5 and G12 inhibition mode, a Lineweaver–Burk plot was generated according to the values obtained from the Michaelis–Menten analysis. […] Graphs and data analysis were performed using GraphPad Prism 8 software.

GSK-3β [3] = molecular target: T1, GSK-3β; experiment: LANCE Ultra TR-FRET GSK-3β kinase inhibition assay (ULight-GS phosphorylation); type: biochemical; settings: 1 µM ATP, 50 nM ULight-GS; for inhibition at 1 µM: 1 μM compound; for inhibition at 1 µM / inhibition at 5 µM / inhibition at 50 µM / inhibition at 100 µM: mean ± SD; for inhibition at 5 µM: 5 μM compound; for inhibition at 50 µM: 50 μM compound; for inhibition at 100 µM: 100 μM compound; for IC50: dose-response 30 nM to 200 μM
Procedure: To assess if the identified GSK-3β binders were also able to affect kinase activity, the inhibitory activity of the four identified hit compounds was tested at four concentrations (1-5-50-100 μM) using the LANCE® Ultra (Perkin Elmer, Waltham, MA, USA) time-resolved fluorescence resonance energy transfer (TR-FRET) assay. The assay measures the ability of GSK-3β to phosphorylate a specific substrate, human Muscle Glycogen Synthase (ULight-GS ([…]/pSer657)), in the presence and absence of the identified ligands. […] Specifically, IC50 values were (14.81 ± 0.55) μM and (15.25 ± 1.34) μ[…] and G12, respectively (Figure 5). The GSK-3β kinase assay was run in 384 well microplates (OptiPlate^TM-384, White, Perkin Elmer) with a total reaction volume of 20 μL. The inhibitory potency against human recombinant GSK-3β was evaluated using the LANCE® Ultra (Perkin Elmer) time-resolved fluorescence resonance energy transfer (TR-FRET) by measuring the phosphorylation of the specific substrate, human Muscle Glycogen Synthase (ULight-GS ([…]/pSer657)), according to the manufacturer's instructions. […] The reaction was initiated by adding 50 nM of the substrate ULight-[…] and 1 μM ATP. The mixture was incubated for 1 h at 23 °C. Afterward, the reaction was stopped by adding 8 mM EDTA. After 5 min, the anti-phospho-GS antibody labeled with europium chelate was added. 1 h later, the kinase reaction was monitored by irradiation at 320 nm, and the fluorescence was measured at 615 and 665 nm, using EnVision 2014 Multilabel Reader (PerkinElmer). The calculated signal ratio at 665/615 nm was proportional to the extent of ULight-GS phosphorylation. The compounds were screened at four concentrations (1-5-50-100 μM). For selected compounds, dose-response curves, ranging from 30 nM up to 200 μM, were performed. Dose-response curves were run in three independent experiments, each performed in three technical replicates. IC50 values (concentrations causing half-maximal response or enzyme inhibition) were determined by non-linear regression analysis of the Log [concentration]/response curves generated with mean replicate values using a four parameter Hill equation curve fitting with GraphPad Prism 8 (GraphPad Software Inc., San Diego, CA, USA).

T1 sequence (P49841 whole entry): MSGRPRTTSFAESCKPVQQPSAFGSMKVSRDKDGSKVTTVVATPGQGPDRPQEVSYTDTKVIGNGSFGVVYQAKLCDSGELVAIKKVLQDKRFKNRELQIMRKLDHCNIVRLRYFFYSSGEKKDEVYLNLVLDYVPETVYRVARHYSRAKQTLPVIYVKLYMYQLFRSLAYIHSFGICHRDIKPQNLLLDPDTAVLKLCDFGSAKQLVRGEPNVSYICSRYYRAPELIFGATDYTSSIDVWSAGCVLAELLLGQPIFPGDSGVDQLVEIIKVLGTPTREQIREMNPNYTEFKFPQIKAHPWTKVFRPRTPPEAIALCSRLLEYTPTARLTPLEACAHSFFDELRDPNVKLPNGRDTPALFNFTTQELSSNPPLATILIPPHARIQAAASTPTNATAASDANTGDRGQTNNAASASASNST

| Tm increase upon binding (GSK-3β [1]) [°C] | inhibition at 20 µM (p70S6K) [%] | mechanism of inhibition with respect to substrate ULight-GS (GSK-3β [2]) | mechanism of inhibition with respect to ATP (GSK-3β [2]) | inhibition at 1 µM (GSK-3β [3]) [%] | inhibition at 5 µM (GSK-3β [3]) [%] | inhibition at 50 µM (GSK-3β [3]) [%] | inhibition at 100 µM (GSK-3β [3]) [%] | IC50 (GSK-3β [3]) [µM] | SMILES |
| --- | --- | --- | --- | --- | --- | --- | --- | --- | --- |
| 3.2 | 26 | mixed competition mechanism | ATP competitive | 0.3 ± 0.1 | 13.4 ± 2 | 69.4 ± 2 | > 80 | 14.8 ± 0.55 | CS(=O)(=O)N1CC(c2nc(N)ncc2-c2ccc(F)cc2)C1 [G5] |
| 2.5 | 15 | did not compete with the substrate | ATP competitive | 8.5 ± 0.1 | 15.2 ± 2.7 | 71.4 ± 1.7 | > 80 | 15.2 ± 1.34 | O=C(Nc1ccccn1)C1CCN(C(=O)CCc2ccccc2F)C1 (stereo not drawn) [G12] |
